#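 Results reflect a 48-hour exposure of cells in 96-well plates to compound at five concentrations. TGI: concentration producing complete growth inhibition.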
# Experiments:
# Test in all cases: DTP human tumour cell line panel, 48 h
# U251 CNS = tested on: U251 CNS
# SK-MEL-28 melanoma = tested on: SK-MEL-28 melanoma
# HCT-116 colon = tested on: HCT-116 colon
# LOX IMVI melanoma = tested on: LOX IMVI melanoma
# EKVX NSCLC = tested on: EKVX NSCLC
# TK-10 renal = tested on: TK-10 renal
# IGROV1 ovarian = tested on: IGROV1 ovarian
# OVCAR-5 ovarian = tested on: OVCAR-5 ovarian
# HS 578T breast = tested on: HS 578T breast
# HL-60(TB) leukemia = tested on: HL-60(TB) leukemia
# MOLT-4 leukemia = tested on: MOLT-4 leukemia
# SNB-75 CNS = tested on: SNB-75 CNS
# OVCAR-4 ovarian = tested on: OVCAR-4 ovarian
# HT29 colon = tested on: HT29 colon
# CCRF-CEM leukemia = tested on: CCRF-CEM leukemia
# MALME-3M melanoma = tested on: MALME-3M melanoma
# SN12C renal = tested on: SN12C renal
# SF-268 CNS = tested on: SF-268 CNS
# OVCAR-8 ovarian = tested on: OVCAR-8 ovarian
# SW-620 colon = tested on: SW-620 colon
# HOP-62 NSCLC = tested on: HOP-62 NSCLC
# MDA-MB-231 breast = tested on: MDA-MB-231 breast
# SK-MEL-2 melanoma = tested on: SK-MEL-2 melanoma
# MCF7 breast = tested on: MCF7 breast
# MDA-N = tested on: MDA-N
# HCT-15 colon = tested on: HCT-15 colon
# SNB-19 CNS = tested on: SNB-19 CNS
# OVCAR-3 ovarian = tested on: OVCAR-3 ovarian
# SR leukemia = tested on: SR leukemia
# UO-31 renal = tested on: UO-31 renal
# PC-3 prostate = tested on: PC-3 prostate
# MDA-MB-435 = tested on: MDA-MB-435
# COLO 205 colon = tested on: COLO 205 colon
# NCI-H460 lung = tested on: NCI-H460 lung
# KM12 colon = tested on: KM12 colon
# SK-OV-3 ovarian = tested on: SK-OV-3 ovarian
# ACHN renal = tested on: ACHN renal
# M14 melanoma = tested on: M14 melanoma
# CAKI-1 renal = tested on: CAKI-1 renal
# RXF 393 renal = tested on: RXF 393 renal
# 786-0 renal = tested on: 786-0 renal
# NCI-H522 lung = tested on: NCI-H522 lung
# NCI-H23 lung = tested on: NCI-H23 lung
# NCI-H226 lung = tested on: NCI-H226 lung
# SF-295 CNS = tested on: SF-295 CNS
# A549 NSCLC = tested on: A549 NSCLC
# DU-145 prostate = tested on: DU-145 prostate
# NCI/ADR-RES ovarian = tested on: NCI/ADR-RES ovarian
# RPMI-8226 leukemia = tested on: RPMI-8226 leukemia
# UACC-62 melanoma = tested on: UACC-62 melanoma
# HOP-92 NSCLC = tested on: HOP-92 NSCLC
# SF-539 CNS = tested on: SF-539 CNS
# UACC-257 melanoma = tested on: UACC-257 melanoma
# SK-MEL-5 melanoma = tested on: SK-MEL-5 melanoma
# K-562 leukemia = tested on: K-562 leukemia
# A498 renal = tested on: A498 renal
# HCC-2998 colon = tested on: HCC-2998 colon
# T-47D breast = tested on: T-47D breast
structure (smiles),measurement,setting,value
CN(NC(=O)/C(=C/c1ccc(Cl)cc1)NC(=O)c1ccccc1)c1cn[nH]c(=O)c1Cl,TGI,U251 CNS,> 100 µM
same,TGI,SK-MEL-28 melanoma,> 100 µM
same,TGI,HCT-116 colon,> 100 µM
same,TGI,LOX IMVI melanoma,> 100 µM
same,TGI,EKVX NSCLC,> 100 µM
same,TGI,TK-10 renal,> 100 µM
same,TGI,IGROV1 ovarian,> 100 µM
same,TGI,OVCAR-5 ovarian,> 100 µM
same,TGI,HS 578T breast,> 100 µM
same,TGI,HL-60(TB) leukemia,41.6 µM
same,TGI,MOLT-4 leukemia,84.2 µM
same,TGI,SNB-75 CNS,> 100 µM
same,TGI,OVCAR-4 ovarian,> 100 µM
same,TGI,HT29 colon,> 100 µM
same,TGI,CCRF-CEM leukemia,> 100 µM
same,TGI,MALME-3M melanoma,> 100 µM
same,TGI,SN12C renal,> 100 µM
same,TGI,SF-268 CNS,> 100 µM
same,TGI,OVCAR-8 ovarian,> 100 µM
same,TGI,SW-620 colon,> 100 µM
same,TGI,HOP-62 NSCLC,> 100 µM
same,TGI,MDA-MB-231 breast,> 100 µM
same,TGI,SK-MEL-2 melanoma,> 100 µM
same,TGI,MCF7 breast,> 100 µM
same,TGI,MDA-N,> 100 µM
same,TGI,HCT-15 colon,> 100 µM
same,TGI,SNB-19 CNS,> 100 µM
same,TGI,OVCAR-3 ovarian,> 100 µM
same,TGI,SR leukemia,> 100 µM
same,TGI,UO-31 renal,> 100 µM
same,TGI,PC-3 prostate,> 100 µM
same,TGI,MDA-MB-435,> 100 µM
same,TGI,COLO 205 colon,> 100 µM
same,TGI,NCI-H460 lung,> 100 µM
same,TGI,KM12 colon,> 100 µM
same,TGI,SK-OV-3 ovarian,> 100 µM
same,TGI,ACHN renal,> 100 µM
same,TGI,M14 melanoma,> 100 µM
same,TGI,CAKI-1 renal,> 100 µM
same,TGI,RXF 393 renal,> 100 µM
same,TGI,786-0 renal,> 100 µM
same,TGI,NCI-H522 lung,56.6 µM
same,TGI,NCI-H23 lung,> 100 µM
same,TGI,NCI-H226 lung,> 100 µM
same,TGI,SF-295 CNS,> 100 µM
same,TGI,A549 NSCLC,> 100 µM
same,TGI,DU-145 prostate,> 100 µM
same,TGI,NCI/ADR-RES ovarian,> 100 µM
same,TGI,RPMI-8226 leukemia,53.5 µM
same,TGI,UACC-62 melanoma,> 100 µM
same,TGI,HOP-92 NSCLC,> 100 µM
same,TGI,SF-539 CNS,> 100 µM
same,TGI,UACC-257 melanoma,> 100 µM
same,TGI,SK-MEL-5 melanoma,> 100 µM
same,TGI,K-562 leukemia,> 100 µM
CC1CN=C(N(Cc2ccc(F)cc2)C(=O)Nc2ccc(Cl)cc2)S1 (stereo not drawn),TGI,U251 CNS,> 100 µM
same,TGI,SK-MEL-28 melanoma,71.7 µM
same,TGI,HCT-116 colon,> 100 µM
same,TGI,LOX IMVI melanoma,54.5 µM
same,TGI,EKVX NSCLC,69.2 µM
same,TGI,TK-10 renal,> 100 µM
same,TGI,IGROV1 ovarian,> 100 µM
same,TGI,OVCAR-5 ovarian,> 100 µM
same,TGI,HS 578T breast,> 100 µM
same,TGI,HL-60(TB) leukemia,91 µM
same,TGI,MOLT-4 leukemia,> 100 µM
same,TGI,SNB-75 CNS,> 100 µM
same,TGI,OVCAR-4 ovarian,> 100 µM
same,TGI,HT29 colon,65.8 µM
same,TGI,A498 renal,67.4 µM
same,TGI,CCRF-CEM leukemia,> 100 µM
same,TGI,MALME-3M melanoma,> 100 µM
same,TGI,SN12C renal,> 100 µM
same,TGI,SF-268 CNS,> 100 µM
same,TGI,OVCAR-8 ovarian,> 100 µM
same,TGI,SW-620 colon,> 100 µM
same,TGI,HOP-62 NSCLC,> 100 µM
same,TGI,MDA-MB-231 breast,> 100 µM
same,TGI,SK-MEL-2 melanoma,37.5 µM
same,TGI,MCF7 breast,64 µM
same,TGI,MDA-N,61.1 µM
same,TGI,HCT-15 colon,> 100 µM
same,TGI,SNB-19 CNS,> 100 µM
same,TGI,OVCAR-3 ovarian,> 100 µM
same,TGI,SR leukemia,> 100 µM
same,TGI,UO-31 renal,> 100 µM
same,TGI,PC-3 prostate,> 100 µM
same,TGI,COLO 205 colon,> 100 µM
same,TGI,NCI-H460 lung,> 100 µM
same,TGI,KM12 colon,> 100 µM
same,TGI,SK-OV-3 ovarian,> 100 µM
same,TGI,HCC-2998 colon,76.6 µM
same,TGI,ACHN renal,> 100 µM
same,TGI,M14 melanoma,17.4 µM
same,TGI,CAKI-1 renal,> 100 µM
same,TGI,786-0 renal,> 100 µM
same,TGI,NCI-H23 lung,> 100 µM
same,TGI,SF-295 CNS,> 100 µM
same,TGI,T-47D breast,> 100 µM
same,TGI,A549 NSCLC,> 100 µM
same,TGI,DU-145 prostate,> 100 µM
same,TGI,NCI/ADR-RES ovarian,> 100 µM
same,TGI,RPMI-8226 leukemia,> 100 µM
same,TGI,SF-539 CNS,> 100 µM
same,TGI,UACC-257 melanoma,> 100 µM
same,TGI,SK-MEL-5 melanoma,29.4 µM
same,TGI,K-562 leukemia,> 100 µM
N#C/C(C(=O)Nc1ccccc1)=C(/N)N1CCCC1,TGI,U251 CNS,> 100 µM
same,TGI,SK-MEL-28 melanoma,> 100 µM
same,TGI,HCT-116 colon,> 100 µM
same,TGI,LOX IMVI melanoma,> 100 µM
same,TGI,EKVX NSCLC,> 100 µM
same,TGI,TK-10 renal,> 100 µM
same,TGI,IGROV1 ovarian,> 100 µM
same,TGI,OVCAR-5 ovarian,> 100 µM
same,TGI,HS 578T breast,> 100 µM
same,TGI,HL-60(TB) leukemia,> 100 µM
same,TGI,MOLT-4 leukemia,> 100 µM
same,TGI,OVCAR-4 ovarian,> 100 µM
same,TGI,HT29 colon,> 100 µM
same,TGI,A498 renal,> 100 µM
same,TGI,CCRF-CEM leukemia,> 100 µM
same,TGI,MALME-3M melanoma,> 100 µM
same,TGI,SN12C renal,> 100 µM
same,TGI,SF-268 CNS,> 100 µM
same,TGI,OVCAR-8 ovarian,> 100 µM
same,TGI,SW-620 colon,> 100 µM
same,TGI,HOP-62 NSCLC,> 100 µM
same,TGI,MDA-MB-231 breast,> 100 µM
same,TGI,SK-MEL-2 melanoma,> 100 µM
same,TGI,MDA-N,> 100 µM
same,TGI,HCT-15 colon,> 100 µM
same,TGI,SNB-19 CNS,> 100 µM
same,TGI,OVCAR-3 ovarian,> 100 µM
same,TGI,SR leukemia,> 100 µM
same,TGI,UO-31 renal,> 100 µM
same,TGI,PC-3 prostate,> 100 µM
same,TGI,MDA-MB-435,> 100 µM
same,TGI,COLO 205 colon,> 100 µM
same,TGI,NCI-H460 lung,> 100 µM
same,TGI,KM12 colon,> 100 µM
same,TGI,SK-OV-3 ovarian,> 100 µM
same,TGI,HCC-2998 colon,> 100 µM
same,TGI,ACHN renal,> 100 µM
same,TGI,M14 melanoma,> 100 µM
same,TGI,CAKI-1 renal,> 100 µM
same,TGI,RXF 393 renal,> 100 µM
same,TGI,786-0 renal,> 100 µM
same,TGI,NCI-H522 lung,> 100 µM
same,TGI,NCI-H23 lung,> 100 µM
same,TGI,NCI-H226 lung,> 100 µM
same,TGI,SF-295 CNS,> 100 µM
same,TGI,T-47D breast,> 100 µM
same,TGI,A549 NSCLC,> 100 µM
same,TGI,DU-145 prostate,> 100 µM
same,TGI,NCI/ADR-RES ovarian,> 100 µM
same,TGI,RPMI-8226 leukemia,> 100 µM
same,TGI,UACC-62 melanoma,> 100 µM
same,TGI,HOP-92 NSCLC,> 100 µM
same,TGI,SF-539 CNS,> 100 µM
same,TGI,UACC-257 melanoma,> 100 µM
same,TGI,SK-MEL-5 melanoma,> 100 µM
same,TGI,K-562 leukemia,> 100 µM
